Laboratory results reported in US6764996B1, “9a-azalides with antibacterial activity” (Abbott Laboratories, priority 1999, dated 2004).

Columns and labels:
Assay in all cases: In vitro antibacterial activity, agar dilution MIC
Format in all cases: cell-based
[1] = system: Staphylococcus aureus ATCC 6538P; details: code AA: Staphylococcus aureus ATCC 6538P; BHI agar, 35-37° C., 20 to 24 hours; unit assumed
Protocol: (§1) Representative compounds of the present invention were assayed in vitro for antibacterial activity as follows: Twelve petri dishes containing successive aqueous dilutions of the test compound mixed with 10 mL of sterilized Brain Heart Infusion (BHI) agar (Difco 0418-01-5) were prepared. Each plate was inoculated with 1:100 (or 1:10 for slow-growing strains, such as Micrococcus and Streptococcus) dilutions of up to 32 different microorganisms, using a Steers replicator block. The inoculated plates were incubated at 35-37° C. for 20 to 24 hours. In addition, a control plate, using BHI agar containing no test compound, was prepared and incubated at the beginning and end of each test.
(§2) An additional plate containing a compound having known susceptibility patterns for the organisms being tested and belonging to the same antibiotic class as the test compound was also prepared and incubated as a further control, as well as to provide test-to-test comparability. Erythromycin A was used for this purpose.
(§3) After incubation, each plate was visually inspected. The minimum inhibitory concentration (MIC) was defined as the lowest concentration of drug yielding no growth, a slight haze, or sparsely isolated colonies on the inoculum spot as compared to the growth control.

[2] = system: Staphylococcus aureus 1775; details: code GG: Staphylococcus aureus 1775; BHI agar, 35-37° C., 20 to 24 hours; unit assumed
Protocol: as §1, §2, §3

[3] = system: Streptococcus Pneumonia GYR 1171; details: code YY: Streptococcus Pneumonia GYR 1171; BHI agar, 35-37° C., 20 to 24 hours; unit assumed
Protocol: as §1, §2, §3

[4] = system: Staphylococcus epidermidis 3519; details: code HH: Staphylococcus epidermidis 3519; BHI agar, 35-37° C., 20 to 24 hours; unit assumed
Protocol: as §1, §2, §3

[5] = system: Nocardia Asteroides ATCC 99700; details: code VV: Nocardia Asteroides ATCC 99700; BHI agar, 35-37° C., 20 to 24 hours; unit assumed
Protocol: as §1, §2, §3

[6] = system: Streptococcus bovis A-5169; details: code JJ: Streptococcus bovis A-5169; BHI agar, 35-37° C., 20 to 24 hours; unit assumed
Protocol: as §1, §2, §3

[7] = system: Streptococcus agalactiae CMX 508; details: code KK: Streptococcus agalactiae CMX 508; BHI agar, 35-37° C., 20 to 24 hours; unit assumed
Protocol: as §1, §2, §3

[8] = system: Staphylococcus aureus A-5177; details: code BB: Staphylococcus aureus A-5177; BHI agar, 35-37° C., 20 to 24 hours; unit assumed
Protocol: as §1, §2, §3

[9] = system: Staphylococcus aureus NCTC 10649M; details: code EE: Staphylococcus aureus NCTC 10649M; BHI agar, 35-37° C., 20 to 24 hours; unit assumed
Protocol: as §1, §2, §3

[10] = system: Streptococcus pyogenes EES61; details: code LL: Streptococcus pyogenes EES61; BHI agar, 35-37° C., 20 to 24 hours; unit assumed
Protocol: as §1, §2, §3

Escherichiacoli JUHL = details: code QQ: Escherichiacoli JUHL; BHI agar, 35-37° C., 20 to 24 hours; unit assumed
Protocol: as §1, §2, §3

[11] = system: Micrococcusluteus ATCC 4698; details: code PP: Micrococcusluteus ATCC 4698; BHI agar, 35-37° C., 20 to 24 hours; unit assumed
Protocol: as §1, §2, §3

Candida albicans CCH 442 = details: code TT: Candida albicans CCH 442; BHI agar, 35-37° C., 20 to 24 hours; unit assumed
Protocol: as §1, §2, §3

Escherichiacoli SS = details: code RR: Escherichiacoli SS; BHI agar, 35-37° C., 20 to 24 hours; unit assumed
Protocol: as §1, §2, §3

[12] = system: Streptococcus pyogenes 930; details: code MM: Streptococcus pyogenes 930; BHI agar, 35-37° C., 20 to 24 hours; unit assumed
Protocol: as §1, §2, §3

[13] = system: Staphylococcus aureus A-5278; details: code CC: Staphylococcus aureus A-5278; BHI agar, 35-37° C., 20 to 24 hours; unit assumed
Protocol: as §1, §2, §3

[14] = system: Mycobacterium smegmatis ATCC 114; details: code UU: Mycobacterium smegmatis ATCC 114; BHI agar, 35-37° C., 20 to 24 hours; unit assumed
Protocol: as §1, §2, §3

[15] = system: Streptococcus Pneumonia 5649; details: code ZA: Streptococcus Pneumonia 5649; BHI agar, 35-37° C., 20 to 24 hours; unit assumed
Protocol: as §1, §2, §3

[16] = system: Haemophilislnfluenzae DILL AMP R; details: code WW: Haemophilislnfluenzae DILL AMP R; BHI agar, 35-37° C., 20 to 24 hours; unit assumed
Protocol: as §1, §2, §3

[17] = system: Streptococcus Pneumonia ATCC 6303; details: code XX: Streptococcus Pneumonia ATCC 6303; BHI agar, 35-37° C., 20 to 24 hours; unit assumed
Protocol: as §1, §2, §3

[18] = system: Streptococcus pyogenes PIU 2548; details: code NN: Streptococcus pyogenes PIU 2548; BHI agar, 35-37° C., 20 to 24 hours; unit assumed
Protocol: as §1, §2, §3

[19] = system: Streptococcus Pneumonia 5979; details: code ZZ: Streptococcus Pneumonia 5979; BHI agar, 35-37° C., 20 to 24 hours; unit assumed
Protocol: as §1
An additional plate containing a compound having known susceptibility patterns for the organisms being tested and belonging to the same antibiotic class as the test compound was also prepared and incubated as a further control, as well as to provide test-to-test comparability.
as §3

SMILES	Antibacterial Activity (MIC) [1] [µg/mL]	Antibacterial Activity (MIC) [2] [µg/mL]	Antibacterial Activity (MIC) [3] [µg/mL]	Antibacterial Activity (MIC) [4] [µg/mL]	Antibacterial Activity (MIC) [5] [µg/mL]	Antibacterial Activity (MIC) [6] [µg/mL]	Antibacterial Activity (MIC) [7] [µg/mL]	Antibacterial Activity (MIC) [8] [µg/mL]	Antibacterial Activity (MIC) [9] [µg/mL]	Antibacterial Activity (MIC) [10] [µg/mL]	Antibacterial Activity (MIC) (Escherichiacoli JUHL) [µg/mL]	Antibacterial Activity (MIC) [11] [µg/mL]	Antibacterial Activity (MIC) (Candida albicans CCH 442) [µg/mL]	Antibacterial Activity (MIC) (Escherichiacoli SS) [µg/mL]	Antibacterial Activity (MIC) [12] [µg/mL]	Antibacterial Activity (MIC) [13] [µg/mL]	Antibacterial Activity (MIC) [14] [µg/mL]	Antibacterial Activity (MIC) [15] [µg/mL]	Antibacterial Activity (MIC) [16] [µg/mL]	Antibacterial Activity (MIC) [17] [µg/mL]	also measured
CC[C@H]1OC(=O)[C@H](C)[C@@H](O[C@H]2C[C@@](C)(OC)[C@@H](O)[C@H](C)O2)[C@H](C)[C@@H](O[C@@H]2O[C@H](C)C[C@H](N(C)C)[C@H]2O)[C@](C)(O)C[C@@H](C)C(=O)[C@H](C)[C@@H](O)[C@]1(C)O [Ery. A, Erythromycin A, reference compound]	0.2	> 100	0.06	0.39	0.1	0.02	0.05	3.1	0.39	0.05	> 100	0.2	> 100	0.78	> 100	> 100	3.1	16	4	0.06	Antibacterial Activity (MIC) [18]: 6.2 µg/mL
C=CCOC1(C)CC(C)CNC(C)C(O)C(C)(O)C(CC)OC(=O)C(C)C(OC2CC(C)(OC)C(O)C(C)O2)C(C)C1OC1OC(C)CC(N(C)C)C1O (stereo not shown) [Example 2, Compound of formula (I): R^1 is —CH2CH═CH2, R^4 is hydrogen, R^5 is hydrogen, R^6 is hydrogen, R^7 is hydrogen, R^8 is hydrogen]	0.2	> 100	0.06	0.2	0.1	0.02	0.05	12.5	0.39	0.05	50	0.39	> 100	0.78	> 100	> 100	6.2	16	8	0.06	Antibacterial Activity (MIC) [19]: > 128 µg/mL; Antibacterial Activity (MIC) [18]: 6.2 µg/mL
C=CCOC1(C)CC(C)CN(C)C(C)C(O)C(C)(O)C(CC)OC(=O)C(C)C(OC2CC(C)(OC)C(O)C(C)O2)C(C)C1OC1OC(C)CC(N(C)C)C1O (stereo not shown) [Example 3, Compound of formula (I): R^1 is —CH2CH═CH2, R^4 is hydrogen, R^5 is hydrogen, R^6 is methyl, R^7 is hydrogen, R^8 is hydrogen]	0.2	> 100	0.06	0.39	0.1	0.05	0.1	12.5	0.39	0.05	50	0.39	> 100	0.39	> 100	> 100	6.2	8	8	0.06	Antibacterial Activity (MIC) [19]: > 128 µg/mL; Antibacterial Activity (MIC) [18]: 6.2 µg/mL
C=CCOC1(C)CC(C)CN(C)C(C)C(O)C(C)(O)C(CC)OC(=O)C(C)C(O)C(C)C1OC1OC(C)CC(N(C)C)C1O (stereo not shown) [Example 4, Compound of formula (II): R^1 is —CH2CH═CH2, R^2 is hydrogen, R^3 is —OR^13, R^13 is hydrogen, R^4 is hydrogen, R^5 is hydrogen, R^6 is methyl, R^8 is hydrogen]	0.39	> 100	0.03	0.39	0.05	0.02	0.05	6.2	0.39	0.05	50	0.39	> 100	0.78	> 100	> 100	6.2	8	4	0.03	Antibacterial Activity (MIC) [19]: > 128 µg/mL; Antibacterial Activity (MIC) [18]: 6.2 µg/mL
CCC1OC(=O)C(C)C(=O)C(C)C(OC2OC(C)CC(N(C)C)C2O)C(C)(OCC=Cc2cnc3ccccc3c2)CC(C)CN(C)C(C)C(O)C1(C)O (stereo not shown) [Example 5, Compound of formula (II): R^1 is —CH2CH═CH-(3-quinolinyl), R^2 and R^3 together are oxo, R^4 is hydrogen, R^5 is hydrogen, R^6 is methyl, R^8 is hydrogen]	0.2	> 100	0.03	0.2	0.1	0.02	0.05	12.5	0.39	0.05	50	0.39	> 100	0.78	> 100	> 100	6.2	8	4	0.06	Antibacterial Activity (MIC) [19]: > 128 µg/mL; Antibacterial Activity (MIC) [18]: 6.2 µg/mL
